According to PubChem BioAssay (NCI):
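All cell lines were grown in 96-well plates and treated with compound for 48 hours. TGI: total growth inhibition.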

Assays:
Assay in all cases: NCI anticancer screen, dose series, 48 h
ACHN renal = tested on: ACHN renal
RXF 393 renal = tested on: RXF 393 renal
A549 NSCLC = tested on: A549 NSCLC
UO-31 renal = tested on: UO-31 renal
OVCAR-8 ovarian = tested on: OVCAR-8 ovarian
IGROV1 ovarian = tested on: IGROV1 ovarian
CCRF-CEM leukemia = tested on: CCRF-CEM leukemia
SK-MEL-5 melanoma = tested on: SK-MEL-5 melanoma
HCT-116 colon = tested on: HCT-116 colon
NCI-H23 lung = tested on: NCI-H23 lung
HOP-62 NSCLC = tested on: HOP-62 NSCLC
SN12C renal = tested on: SN12C renal
SNB-19 CNS = tested on: SNB-19 CNS
M14 melanoma = tested on: M14 melanoma
SF-539 CNS = tested on: SF-539 CNS
KM12 colon = tested on: KM12 colon
SF-295 CNS = tested on: SF-295 CNS
SK-MEL-28 melanoma = tested on: SK-MEL-28 melanoma
HOP-92 NSCLC = tested on: HOP-92 NSCLC
EKVX NSCLC = tested on: EKVX NSCLC
TK-10 renal = tested on: TK-10 renal
K-562 leukemia = tested on: K-562 leukemia
MOLT-4 leukemia = tested on: MOLT-4 leukemia
RXF-631 renal = tested on: RXF-631 renal
HL-60(TB) leukemia = tested on: HL-60(TB) leukemia
M19-MEL melanoma = tested on: M19-MEL melanoma
SK-MEL-2 melanoma = tested on: SK-MEL-2 melanoma
NCI-H226 lung = tested on: NCI-H226 lung
786-0 renal = tested on: 786-0 renal
XF 498 CNS = tested on: XF 498 CNS
SF-268 CNS = tested on: SF-268 CNS
SK-OV-3 ovarian = tested on: SK-OV-3 ovarian
HOP-18 NSCLC = tested on: HOP-18 NSCLC
SW-620 colon = tested on: SW-620 colon
OVCAR-3 ovarian = tested on: OVCAR-3 ovarian
NCI-H522 lung = tested on: NCI-H522 lung
SNB-78 CNS = tested on: SNB-78 CNS
OVCAR-5 ovarian = tested on: OVCAR-5 ovarian
OVCAR-4 ovarian = tested on: OVCAR-4 ovarian
DLD-1 colon = tested on: DLD-1 colon
U251 CNS = tested on: U251 CNS
DMS 114 small cell lung = tested on: DMS 114 small cell lung
LOX IMVI melanoma = tested on: LOX IMVI melanoma
UACC-62 melanoma = tested on: UACC-62 melanoma
CAKI-1 renal = tested on: CAKI-1 renal
UACC-257 melanoma = tested on: UACC-257 melanoma
RPMI-8226 leukemia = tested on: RPMI-8226 leukemia
LXFL 529 NSCLC = tested on: LXFL 529 NSCLC
MALME-3M melanoma = tested on: MALME-3M melanoma
NCI-H460 lung = tested on: NCI-H460 lung
HT29 colon = tested on: HT29 colon
HCC-2998 colon = tested on: HCC-2998 colon
COLO 205 colon = tested on: COLO 205 colon
DMS 273 small cell lung = tested on: DMS 273 small cell lung
KM20L2 colon = tested on: KM20L2 colon
HCT-15 colon = tested on: HCT-15 colon
SNB-75 CNS = tested on: SNB-75 CNS
A498 renal = tested on: A498 renal
SR leukemia = tested on: SR leukemia

Measured: TGI

COC(=O)C1(C)C=C(Nc2ccccc2)C(=O)N1c1ccccc1 (stereo not drawn)
not listed: COLO 205 colon | DMS 273 small cell lung | KM20L2 colon | HCT-15 colon | SNB-75 CNS | A498 renal | SR leukemia
> 100 µM: all other assays above

COc1nc2c(OC)cccc2c(OC)c1C=O
not listed: HOP-92 NSCLC | RXF-631 renal | SF-268 CNS | SNB-78 CNS | OVCAR-5 ovarian | OVCAR-4 ovarian | DLD-1 colon | CAKI-1 renal | LXFL 529 NSCLC | HCC-2998 colon | A498 renal | SR leukemia
> 100 µM: all other assays above

COc1ccc(OCC(=O)O)c2c1CCC(C(C)C)C2=O (stereo not drawn)
not listed: RXF 393 renal | SN12C renal | NCI-H226 lung | XF 498 CNS | SF-268 CNS | HCT-15 colon | SNB-75 CNS | SR leukemia
> 100 µM: all other assays above

CC1=CC=NN2C(=O)[C@H](C)C2C1 (stereo partly drawn)
not listed: CAKI-1 renal
> 100 µM: all other assays above
